In US11780854B2, “Prolyl hydroxylase domain-containing protein (PHD) inhibitors and uses thereof” (Insilico Medicine IP Limited, priority 2021, dated 2023):

What was measured:
[1] = target: PHD2 (Homo sapiens (Human), UniProt Q9GZT9); assay: PHD2 Enzymatic Assay (AlphaScreen); type: biochemical; conditions: 30 min preincubation at RT
[2] = system: Hep3B cell; assay: EPO Elisa Assay in Hep3B cells; type: cell-based; conditions: Homo sapiens, 24 h at 37° C.

PHD2, sequence (Q9GZT9 whole entry): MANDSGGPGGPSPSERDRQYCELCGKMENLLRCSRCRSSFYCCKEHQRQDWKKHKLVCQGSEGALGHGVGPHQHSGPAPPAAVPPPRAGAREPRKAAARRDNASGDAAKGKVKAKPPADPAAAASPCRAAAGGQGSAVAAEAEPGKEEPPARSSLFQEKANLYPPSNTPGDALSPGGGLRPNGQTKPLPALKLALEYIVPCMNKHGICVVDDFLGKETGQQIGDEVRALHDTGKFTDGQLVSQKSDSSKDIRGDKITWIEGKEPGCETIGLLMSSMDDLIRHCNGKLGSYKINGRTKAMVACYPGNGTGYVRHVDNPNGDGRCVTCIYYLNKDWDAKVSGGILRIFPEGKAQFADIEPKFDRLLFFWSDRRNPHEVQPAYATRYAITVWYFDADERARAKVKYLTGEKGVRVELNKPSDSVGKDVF

Row | Structure (SMILES) | IC50 [1] | EC50 [2]
1 | N#Cc1ccc(CNC(=O)c2ncc3nc(N4C[C@@H]5C[C@H]4CO5)ccc3c2O)cn1 [compound 44] | < 0.005 µM | 2.5 to 5 µM
2 | N#Cc1ccc(CNC(=O)c2ncc3nc(N4C[C@H]5C[C@@H]4CN5C4CC4)ccc3c2O)c(Cl)c1 [compound 69] | 0.005 to 0.02 µM | 2.5 to 5 µM
3 | CN1CCC2(CCN(c3ccc4c(O)c(C(=O)NCc5ccc(C#N)nc5)ncc4n3)CC2)C1=O [compound 67] | < 0.005 µM | 5 to 7.5 µM
4 | N#Cc1ccc(CNC(=O)c2ncc3nc(N4C[C@@H]5C[C@H]4CN5C4CC4)ccc3c2O)c(Cl)c1 [compound 68] | 0.005 to 0.02 µM | < 2.5 µM
5 | N#Cc1ccc(CNC(=O)c2ncc3nc(N4CCC5(COC5)C4)ccc3c2O)cn1 [compound 25] | < 0.005 µM | < 2.5 µM
6 | CN1C[C@@H]2C[C@H]1CN2c1ccc2c(O)c(C(=O)NCc3ccc(C#N)cc3Cl)ncc2n1 [compound 58] | < 0.005 µM | 10 to 100 µM
7 | N#Cc1ccc(CNC(=O)c2ncc3nc(N4CCC5(COC5)C4)ccc3c2O)c(Cl)c1 [compound 8] | 0.005 to 0.02 µM | 2.5 to 5 µM
8 | N#Cc1ccc(CNC(=O)c2ncc3nc(N4C[C@@H]5C[C@H]4CN5C4CC4)ccc3c2O)cn1 [compound 80] | < 0.005 µM | < 2.5 µM

Now from value to compound:

Row | IC50 [1] | EC50 [2] | Structure (SMILES)
9 | < 0.005 µM | < 2.5 µM | CC(C)(C)OC(=O)N1CC2(C1)CN(c1ccc3c(O)c(C(=O)NCc4ccc(C#N)nc4)ncc3n1)C2 [compound 91]
10 | < 0.005 µM | 10 to 100 µM | CC(C)(C)OC(=O)N1C[C@@H]2C[C@H]1CN2c1ccc2c(O)c(C(=O)NCc3ccc(C#N)nc3)ncc2n1 [compound 116]
11 | < 0.005 µM | 2.5 to 5 µM | N#Cc1ccc(CNC(=O)c2ncc3nc(N4C[C@H]5C[C@@H]4CO5)ccc3c2O)cn1 [compound 43]
12 | < 0.005 µM | 2.5 to 5 µM | CC(C)(C)OC(=O)N1C[C@@H]2CN(c3ccc4c(O)c(C(=O)NCc5ccc(C#N)nc5)ncc4n3)C[C@@H]2C1 [compound 117]
13 | < 0.005 µM | 2.5 to 5 µM | CC(C)(C)OC(=O)N1CCOC2(C1)CN(c1ccc3c(O)c(C(=O)NCc4ccc(C#N)nc4)ncc3n1)C2 [compound 118]
14 | – | 2.5 to 5 µM | N#Cc1ccc(CNC(=O)c2ncc3nc(N4CC5CC4CO5)ccc3c2O)cn1 (centres unmarked) [compound 30]
15 | < 0.005 µM | 10 to 100 µM | CC(C)(C)OC(=O)N[C@@H]1CN(c2ccc3c(O)c(C(=O)NCc4ccc(C#N)nc4)ncc3n2)CC12CC2 [compound 145]
